Measurements published in patent US8367735B2, “Pharmaceutical compositions” (Crawford Healthcare Holdings Limited, priority 2006, dated 2013).

Assays:
[1] = tested on: human Burkitt lymphoma HS-Sultan cells; assay: Annexin V staining apoptosis, HS-Sultan cells; type: cell-based
Protocol: (§1) Cell Culture and Treatments. Human breast cancer MDA-MB-231, human melanoma SK-MEL-28, and human Burkitt lymphoma HS-Sultan cell lines, obtained from ATCC (Manassas, Va.), were grown at 37° C. in 5% CO2 and 95% humidified air in cell culture medium containing 10% fetal calf serum, 2 mM glutamine and antibiotics ([…] penicillin and 0.1 mg/ml streptomycin) (Life Technologies, Inc.). Each compound to be assayed was dissolved in absolute ethanol and diluted in the culture medium immediately before use. Control cells received the same amount of ethanol diluent. Cells were incubated with the assay compound or control diluent for 8 hours, unless indicated otherwise. Cell viability was determined by vital-dye exclusion assay (Trypan blue, 0.1%).
(§2) Flow Cytometry. For Annexin V staining, cells were washed once with PBS and resuspended in staining buffer (10 mM HEPES pH 7.4, 140 mM NaCl, 2.5 mM CaCl) with […] of AnnexinV-PI (AnnexinV-FITC, Becton-Dickinson). After 15 minutes of incubation in the dark, cells were directly analyzed in a FACScan (Becton-Dickinson). Cells were evaluated with CellQuest Program (Becton-Dickinson). Data were plotted using a histogram algorithm, in which the intensities of Annexin V-positive cells were represented as percent of untreated control. Exemplary data obtained from human Burkitt lymphoma HS-Sultan cells and human melanoma SK-MEL-28 cells (24 hour incubation for SK-MEL-28 cells) are provided in FIGS. 1 and 2, respectively.
Electrophoretic Mobility Shift Assay (EMSA). […] Complexes were analyzed by nondenaturing 4% polyacrylamide gel electrophoresis. […] Quantitative evaluation of NF-κB-κB complex formation was determined by Typhoon-8600 Imager (Molecular Dynamics), using ImageQuant software (MDP analysis). […]

[2] = tested on: human melanoma SK-MEL-28 cells; assay: Annexin V staining apoptosis, SK-MEL-28 cells; type: cell-based; conditions: 24 hour incubation, in comparison to Cisplatin, Etoposide and Vinblastine, FIG. 2
Protocol: as §1
as §2, with “Exemplary data obtained from human Burkitt lymphoma HS-Sultan cells and human melanoma SK-MEL-28 cells (24 hour incubation for SK-MEL-28 cells) are provided in FIGS. 1 and 2, respectively.” left out

[3] = tested on: human breast cancer MDA-MB-231 cells; assay: DNA fragmentation (Cell-Death-Detection ELISA), MDA-MB-231 cells; type: cell-based; conditions: 5 μM, 48 hour incubation, FIG. 3
Protocol: as §1
DNA Fragmentation. Cytoplasmic histone-bound DNA fragments (mono- and oligo-nucleosomes) generated during apoptosis were measured by Cell-Death-Detection ELISA kit (Roche Diagnostics, Mannheim, Germany), according to the manufacturer's instructions. Histone-associated DNA fragments were quantified spectrophotometrically using antibodies against DNA and histones in a colorimetric assay. Enrichment in cytoplasmic nucleosomes was expressed as fold-induction of levels in untreated controls. […] At 5 μM CTM-208, apoptosis was increased more than 35-fold over the untreated control.

NF-κB [4] = assay: EMSA of NF-κB DNA-binding activity in HS-Sultan cells; type: cell-based; conditions: Homo sapiens, FIG. 6
Protocol: as §1
Electrophoretic Mobility Shift Assay (EMSA). For nuclear extract preparation, cells (2×10^6 cells/sample) were lysed in hypotonic lysis buffer (10 mM NaCl, 3 mM MgCl2, 10 mM Tris-HCl pH 7.8, 0.5% NP40, 1 mM DTT) and then in high-salt extraction buffer (50 mM Tris-HCl, 400 mM NaCl, 1 mM EDTA, 1 mM EGTA, 1% Triton, 0.5% NP-40, 10% glycerol, 1 mM DTT, 1 mM PMSF, 0.5 μg/ml leupeptin, 0.7 μg/ml pepstatin, 0.2% aprotinin). […] Complexes were analyzed by nondenaturing 4% polyacrylamide gel electrophoresis. […] Quantitative evaluation of NF-κB-κB complex formation was determined by Typhoon-8600 Imager (Molecular Dynamics), using ImageQuant software (MDP analysis). […]

[5] = tested on: Human keratinocytes (HaCaT); assay: HaCaT cell proliferation assay (viable cell count); type: cell-based; conditions: 48 hours after treatment
Protocol: (§3) Cell Lines and Treatments. Human keratinocytes (HaCaT) were grown routinely in DMEM supplemented with 10% FBS and 2 mM L-glutamine at 37° C. in a 5% CO2 humidified atmosphere. Human umbilical vein endothelial cells (HUVEC), obtained from Clonetics (San Diego, Calif., USA), were cultured in EGM medium (Clonetics, San Diego, Calif., USA) supplemented with 2% FBS, […], […] hydrocortisone, […] gentamicin, 3 mg/ml BBE (bovine brain extract) at 37° C. in a 5% CO2 humidified atmosphere.
Compounds. CTM-208 was dissolved in absolute ethanol or DMSO (0.1 M stock solution), stored at −20° C., and diluted in the culture medium immediately before use. Control cells received the same amount of DMSO diluent that had no effect on cell proliferation at the concentrations tested. Methotrexate was dissolved in DMSO. […]
Cell Proliferation Assay. […] At 48 hours after the addition of the compounds, cell proliferation was determined by counting the number of viable cells in a hemocytometer. Cell viability was determined by the Trypan blue vital dye exclusion technique. IC50 values on the increase in the number of cells over the number of seeded cells were calculated at 48 hours after treatment.
Effect of CTM-208 on human keratinocyte proliferation. […] At 48 hours after the addition of the compounds, cell proliferation was determined by counting the number of viable cells in a hemocytometer. […]

[6] = tested on: Human endothelial cells (HUVEC); assay: HUVEC DNA synthesis (BrdU incorporation); type: cell-based; conditions: 48 hours, read-out: IC50 endothelial cell proliferation (BrdU DNA synthesis)
Protocol: as §3
Compounds. CTM-208 was dissolved in absolute ethanol or DMSO (0.1 M stock solution), stored at −20° C., and diluted in the culture medium immediately before use. […]
DNA synthesis. […] DNA synthesis was evaluated by incorporation of 5-bromo-2-deoxy-uridine (BrdU) into cellular DNA 48 hours after the addition of the compounds. The amount of BrdU integrated into DNA was evaluated by using a monoclonal antibody against BrdU (cell proliferation ELISA colorimetric assay, Roche). Absorbance (l: 405 nm) was measured using a Victor microtiter plate reader (Wallac), and data were analyzed using the Allfit program.
Effect of CTM-208 on human endothelial cell proliferation. […] At 48 hours after the addition of the compounds, DNA synthesis was evaluated by incorporation of 5-bromo-2-deoxy-uridine (BrdU) into cellular DNA. […]

HSF [7] = assay: EMSA of HSF induction in human keratinocytes; type: cell-based
NF-κB [8] = assay: EMSA of NF-κB DNA-binding activity in human keratinocytes; type: cell-based; conditions: Keratinocyte, read-out: NF-κB
Protocol: Electrophoretic Mobility Shift Assay (EMSA). For nuclear extract preparation, cells (2×10^6 cells/sample) were lysed in hypotonic lysis buffer (10 mM NaCl, 3 mM MgCl2, 10 mM Tris-HCl pH 7.8, 0.5% NP40, 1 mM DTT) and then in high-salt extraction buffer (50 mM Tris-HCl, 400 mM NaCl, 1 mM EDTA, 1 mM EGTA, 1% Triton, 0.5% NP-40, 10% glycerol, 1 mM DTT, 1 mM PMSF, 0.5 μg/ml leupeptin, 0.7 μg/ml pepstatin, 0.2% aprotinin). Equal amounts of protein (6 μg/sample) were incubated with ^32P-labeled κB-DNA probe followed by analysis of DNA-binding activity by EMSA. Binding reactions were performed as described (11). Complexes were analyzed by nondenaturing 4% polyacrylamide gel electrophoresis. Specificity of protein-DNA complexes was verified by immunoreactivity with polyclonal antibodies specific for the NF-κB subunit, p65/RelA. Quantitative evaluation of NF-κB-κB complex formation was determined by Typhoon-8600 Imager (Molecular Dynamics), using ImageQuant software (MDP analysis).

human keratinocytes = assay: LD50 in human keratinocytes; type: cell-based
Protocol: Cell Proliferation Assay. HaCaT cells (2.5×10^4 cells/well) were seeded in 24-well plates. After 24 hours, the medium was removed and the test compounds were added at different concentrations. At 48 hours after the addition of the compounds, cell proliferation was determined by counting the number of viable cells in a hemocytometer. Cell viability was determined by the Trypan blue vital dye exclusion technique. IC50 values on the increase in the number of cells over the number of seeded cells were calculated at 48 hours after treatment.

HSF [9] = assay: EMSA of HSF induction in human endothelial cells; type: cell-based
NF-κB [10] = assay: EMSA of NF-κB DNA-binding activity in human endothelial cells; type: cell-based; conditions: Endothelial cell
Protocol: as §3
Electrophoretic Mobility Shift Assay (EMSA). For nuclear extract preparation, cells (2×10^6 cells/sample) were lysed in hypotonic lysis buffer (10 mM NaCl, 3 mM MgCl2, 10 mM Tris-HCl pH 7.8, 0.5% NP40, 1 mM DTT) and then in high-salt extraction buffer (50 mM Tris-HCl, 400 mM NaCl, 1 mM EDTA, 1 mM EGTA, 1% Triton, 0.5% NP-40, 10% glycerol, 1 mM DTT, 1 mM PMSF, 0.5 μg/ml leupeptin, 0.7 μg/ml pepstatin, 0.2% aprotinin). Equal amounts of protein (6 μg/sample) were incubated with ^32P-labeled κB-DNA probe followed by analysis of DNA-binding activity by EMSA. Binding reactions were performed as described (11). Complexes were analyzed by nondenaturing 4% polyacrylamide gel electrophoresis. […] Quantitative evaluation of NF-κB-κB complex formation was determined by Typhoon-8600 Imager (Molecular Dynamics), using ImageQuant software (MDP analysis). […]

human endothelial cells = assay: LD50 in human endothelial cells; type: cell-based
HSF1 = conditions: cited from earlier work
NF-κB [11] = conditions: chemical or physiological inducers; cited from earlier work

Row | Compound | apoptosis ([1]; 0.5 μM, 8 hour treatment) | concentration at which induction of apoptosis starts to be effective ([1]; Annexin V-PI staining, FIG. 7) | induction of apoptosis (Annexin V-positive cells) ([1]; in comparison to 15d-PGJ2, FIG. 1) | induction of apoptosis (Annexin V-positive cells) [2] | apoptosis increase over untreated control (cytoplasmic nucleosome enrichment) [3] | IC50 (NF-κB [4]) | IC50 [5] | IC50 [6] | concentration for HSF induction (HSF [7]) | IC50 (NF-κB [8]) | LD50 (human keratinocytes) | effective concentration for HSF induction (HSF [9]) | IC50 (NF-κB [10]) | LD50 (human endothelial cells) | concentration able to activate HSF1 and trigger synthesis of HSP70 (HSF1) | concentration able to block NF-κB activation (NF-κB [11])
1 | COC(=O)[C@H](CSC1CC(=O)/C(=C/c2ccccc2)CC1O[Si](C)(C)C(C)(C)C)NC(=O)OC(C)(C)C (stereo partly drawn) [CTM-208, (R)-2-tert-Butoxycarbonylamino-3-[4E-benzylidene-2(tert-butyl-dimethylsilanyloxy)-5-oxo-cyclohexylsulfanyl]-propionic acid methyl ester] | approximately 90% | 0.1 µM | potent inducer of apoptosis | potent inducer of apoptosis | more than 35 fold | 0.2 µM | 2 µM | 1.6 µM | 1.5 µM | 19 µM | 400 µM | <1 µM | 5 µM | >400 µM |  | 
2 | CN(Cc1cnc2nc(N)nc(N)c2n1)c1ccc(C(=O)N[C@@H](CCC(=O)O)C(=O)O)cc1 [Methotrexate, reference compound] |  |  |  |  |  |  | < 0.1 µM |  | >400 µM |  | >400 µM |  |  |  |  | 
3 | O=C1C=CCC1 [cyclopent-2-en-1-one] |  |  |  |  |  |  |  |  |  |  |  |  |  |  | 125 to 500 µM | 125 to 500 µM
